Results: patent publication US11174267B2, “Spiroindolinones and therapeutic uses thereof” (The Regents of the University of California, priority 2015, dated 2021)

Tested on: heterozygous deletion C. albicans strains
Assay: Whole genome Haploinsufficiency Profiling (HIP)
Type: cell-based, Candida albicans
Conditions: 0.05 μM Compound 1 + 0.125 μg/ml FLC vs. 0.125 μg/ml FLC
Protocol: Whole genome Haploinsufficiency Profiling (HIP) analysis. Haplo-Insufficiency Profiling (HIP) with the Double BarCoded (DBC) library was used. A pool of 5,470 heterozygous deletion C. albicans strains constructed by Merck, to identify potential targets for the azole-synergizer, Compound 1. The collection, obtained from Merck Sharp & Dohme Corp in 96-well plates, were transferred to YPD (2% peptone, 1% yeast extract, and 2% glucose) agar plates and grown at 30° C. for 72 h. All colonies were collected from plates and pooled in SC medium, add glycerol to 15% and adjust to the final concentration of 50 OD600 nm per milliliter, store in aliquot at −80° C.
Stock pools were diluted into SC medium to an OD600 nm of 0.0875 and drug treatments were performed in a 1 ml SC medium in 24-well plates. The appropriate drug treatment concentrations were determined before screening. […]
Bioinformatics analysis of HIP. Sequencing reads were first separated by their experimental tags into treatments and then filtered by UPTAG or DNTAG. Among the reads mapped with experimental tags, more than 95% can be filtered exclusively by UPTAG or DNTAGs. Filtered reads were mapped to an artificial genome containing each individual gene in the library identified by UPTAG or DNTAG using bowtie 1.0.
Read counts per gene were calculated using a weighted arithmetic mean of mapped UPTAG and DNTAG read counts. […]

Cc1c(Cl)ccc2c1NC(=O)[C@]21N[C@H](Cc2ccccc2)[C@@H]2C(=O)N(c3ccc(F)cc3)C(=O)[C@@H]21 (racemic) [Compound 1, (±)-(3R,3′R,3a′R,6a'S)-3′-benzyl-6-chloro-5′-(4-fluorophenyl)-7-methyl-2′,3′,3a′,6a′-tetrahydro-4′H-spiro[indoline-3,1′-pyrrolo[3,4-c]pyrrole]-2,4′,6′(5′H)-trione]
HIP profiling, mutants with significant change in abundance: cdr1/CDR1 emerged as the only mutant that showed a significant change in abundance
